Measurements: publication PMC7377361, “Pressurized DNA state inside herpes capsids—A novel antiviral target” (PLoS Pathogens, 2020)

Legend:
[1] = In vivo toxicity studies in mice (NIH/NIAID preclinical service)
Procedure: A control group was treated with PBS. […] No signs of distress or significant weight loss were observed during the 4 days of treatment. […]
B. In vivo toxicity studies in mice for bPEI 600 and DAB-Am-4. Experiments were conducted through NIAID/NIH preclinical service agreement No HHSN272201700017I/ […]
Procedures and Endpoints:
1- Baseline weights of all mice
2- IP treatment (twice a day, for 4 days)
3- Daily assessment of weights and condition
4- All animals sacrificed the following morning after the last evening treatment 5- Blood samples collected by IC stick for lab tests (liver, spleen and blood profiles) 6- Internal organs examined for signs of gross tissue toxicity
1. Toxicity evaluation of bPEI 600 Da in mice.
A toxicity screen was performed in uninfected mice treated with 3 doses of bPEI 600 Da, administered for 4 days. In this study, 3 doses of 5, 10 and 25 mg/kg/day were administered twice daily IP for 4 days (n=4/group). A control group was treated with the vehicle (PBS). The mice were examined daily and the weights and general condition were recorded daily. To examine liver, renal and blood function parameters, blood samples were obtained by intracardiac puncture at the end of the study (the following day after last dose) and the mice were sacrificed to examine the internal organs for signs of gross tissue toxicity.
The weights were recorded
In order to confirm the results of the lab results obtained in the toxicity study, a second group of slightly larger mice were treated with the high and the low doses of bPEI 600 Da (25 mg/kg and 5 mg/kg, n=6/group) and the vehicle control (PBS, n=4) for 4 days. Blood samples were collected at the end of the study for liver and renal chemistry profiles. The results are shown in the next […]
REN AL PBS 5 mg/kg 25 mg/kg
LIVER PBS 5 mg/kg 25 mg/kg
Al b:Gl ob R a ti o 1 1 1 […]
obtained from the second group of mice treated with bPEI 600 Da for 4 days.
No signs of distress or significant weight loss were ere observed during the […]
show significant differences with the results obtained in the PBS treated group of control mice.
Statistical analysis: Means were compared by Student’s t test, and mortality was compared by Fisher’s exact test, where applicable.
Ethics regulation of Laboratory animals: Animals were housed in facilities approved by the Association for Assessment and Accreditation of Laboratory Animal Care and Use Committee
2. Toxicity evaluation of DAB-Am-4 in mice.
A toxicity screen in uninfected mice was performed. 2 doses of 5 and 25 mg/kg/day were administered twice daily IP for 4 days (n=6/group). A control group was treated with the vehicle […]
The mice were examined daily and the weights and general condition were recorded. […]

HSV-1 = assay: In vitro HSV-1 replication (plaque reduction) assay, EC50 and SI50 estimates; assay type: cell-based; set-up: unit not given beside the values; details: HFF cells infected with HSV-1
[2] = mice, 5 mg/kg/day twice daily IP, 4 days, Mean, CBC (n=1-2)
[3] = mice, 5 mg/kg/day twice daily IP, 4 days, Mean, LIVER (n=5)
[4] = mice, 5 mg/kg/day twice daily IP, 4 days, Mean, RENAL (n=5)

With NCCCN(CCCN)CCCN(CCCCN(CCCN(CCCN)CCCN)CCCN(CCCN)CCCN)CCCN(CCCN)CCCN [DAB-Am-8] the “signs of acute toxicity (lab tests)” value ([1]; mice, 5 and 25 mg/kg/day DAB-Am-4, 5 mg/kg/day DAB-Am-8) was “no conclusive signs of acute toxicity”, the “signs of distress during the observation period” value ([1]; mice, low dose 5 mg/kg/day) was “no significant signs” and the “%Lymphocyte” value [1, 2] was 75%. For the same molecule, the Hematocrit [1, 2] was 42, the WBC [1, 2] was 6 and the AST [1, 3] was 437. For the same molecule, the “Alb:Glob Ratio” value [1, 3] was 2, the Albumin [1, 3] was 3 and the Amylase [1, 3] was 730. The “Bile Acids” value [1, 3] was 238, the Cholesterol [1, 3] was 61 and the “Creatine Kinase” value [1, 3] was 3149. For the same molecule, the GGT [1, 3] was under 1, the Globin [1, 3] was 2 and the “Total Protein” value [1, 3] was 4. The Triglyceride [1, 3] was 114, the BUN [1, 4] was 22 and the “Ca:Phos Ratio” value [1, 4] was 1. It also gave a Calcium [1, 4] of 8, a Chloride [1, 4] of 111 and a Glucose [1, 4] of 204. The K [1, 4] was 7, the Na [1, 4] was 147 and the “Na:K Ratio” value [1, 4] was 22. The Phosphorus [1, 4] was 9, the “Uric Acid” value [1, 4] was 2 and the toxicity ([1]; mouse, in vivo, 25 mg/kg/day) was “displayed toxicity”.

For Nc1nc2c(ncn2COCCO)c(=O)[nH]1 [Acyclovir], the SI50 (HSV-1) was ~ 10^2.
